Test results reported in patent US12168664B2, “Triazolopyrimidines, their preparation and use” (THE TRUSTEES OF COLUMBIA UNIVERSITY IN THE CITY OF NEW YORK, priority 2018, dated 2024).
pIC50: −log10 of the molar value.

Experiments:
serum RBP4 [1] = molecular target: T1, serum RBP4 (Mus musculus (Mouse), UniProt Q00724); assay: Serum RBP4 in Abca4−/− mice after 8-week dosing in chow; format: in vivo; conditions: 35 mg/kg daily oral in chow, 8 weeks
Experimental: (§1) Effect of 7a on accumulation of N-retinylidene-N-retinylethanolamine (A2E) in Eyes of the Abca4^−/− Mice
(§2) Animal protocols were approved by the Institutional Animal Care and Use Committee of Columbia University and complied with guidelines set forth by The Association for Research in Vision and Ophthalmology. […] Abca4^−/− (knockout) and C57BL/6J (wild-type control) mice were raised under 12 h on-off cyclic lighting with an in-cage illuminance of 30-50 lux. For long-term oral dosing 7a was formulated into Purina 5035 rodent chow at Research Diets, Inc. (New Brunswick, NJ) to ensure consistent 35 mg/kg daily oral dosing. Animals were administered the AKR-XI-85-containing chow for 8 weeks. Blood samples were collected at baseline and at the end of the dosing period for serum RBP4 measurements. Whole blood was drawn into a centrifuge tube and was let clot at room temperature for 30 min followed by centrifugation at 2,000×g for 15 minutes at +4° C. to collect serum. Serum RBP4 was measured using the RBP4 (mouse/rat) dual ELISA kit (AdipoGen) following the manufacturer's instructions.
To assess pre-clinical efficacy of 7a in the mouse Abca4^−/− model, the compound was formulated into a standard mouse chow to provide the daily oral dosing of 35 mg/kg. Long-term 8-week dosing of the compound formulated into a chow was conducted in Abca4^−/− mice. […]

CYP2D6 = CYP2D6 (Homo sapiens (Human), UniProt P10635); assay: CYP inhibition, fluorescent, CYP2D6; format: in vitro ADME
Experimental: (§3) The compounds listed below were tested in various metabolic stability and CYP inhibition assays.

human RBP4 = human RBP4 (Homo sapiens (Human), UniProt P02753); assay: SPA binding assay for RBP4 (scintillation proximity, 3H-retinol displacement); conditions: 10 nM 3H-retinol, 50 nM biotinylated RBP4
Experimental: Scintillation Proximity RBP4 Binding Assay
Untagged human RBP4 purified from the urine of tubular proteinuria patients was purchased from Fitzgerald Industries International. It was biotinylated using the EZ-Link Sulfo-NHS-LC-Biotinylation kit from Pierce following the manufacturer's recommendations. […] Nonspecific binding was determined in the presence of 20 μM of unlabeled retinol. The reaction mix was assembled in the dark under dim red light. The plates were sealed with clear tape (TopSeal-A: 96-well microplate, PerkinElmer), wrapped in the aluminum foil, and allowed to equilibrate 6 hours at room temperature followed by overnight incubation at +4° C. Radiocounts were measured using a TopCount NXT counter (Packard Instrument Company).
The compounds listed below were tested in two in vitro assays, RBP4 binding (SPA) and retinol-dependent RBP4-TTR interaction (HTRF) (Table 1).

CYP3A4 = CYP3A4 (Homo sapiens (Human), UniProt P08684); assay: CYP inhibition, fluorescent, CYP3A4; format: in vitro ADME
Experimental: as §3

[2] = Metabolic stability in liver microsomes (HLM); format: in vitro ADME, human
Experimental: as §3

serum RBP4 [3] = molecular target: T1, serum RBP4; assay: Serum RBP4 reduction in Balb/c mice after a single oral administration; format: in vivo
Experimental: Pharmacodynamic Studies of 7a and 7p in Balb/c Mice Following a Single Oral Administration
Animal protocols were approved by the Institutional Animal Care and Use Committee of Columbia University and complied with guidelines set forth by The Association for Research in Vision and Ophthalmology. Compounds were prepared as a suspension in 0.9% NaCl, 2% Tween 80 for oral administration. Compounds were administered to Balb/c mice in a volume of 100 μL through oral gavage. The doses used were 15 mg/kg, 25 mg/kg and 35 mg/kg for 7a while two doses, 25 mg/kg and 35 mg/kg, were tested for DENG-31(FFB-0000082). Blood samples were collected at pre-dose and 1 hr, 2 hr, 4 hr, 6 hr, 8 hr, and 24 hr timepoints. Whole blood was drawn into a centrifuge tube and was let clot at room temperature for 30 min followed by centrifugation at 2,000×g for 15 minutes at +4° C. to collect serum. Serum RBP4 was measured using the RBP4 (mouse/rat) dual ELISA kit (AdipoGen) following the manufacturer's instructions.
In order to attain this objective, the effect of oral compound administration was studied in mice. Three doses of compound 7a and two doses of 7p were tested in Balb/c mice assay for reduction of serum RBP4.

CYP2C9 = CYP2C9 (Homo sapiens (Human), UniProt P11712); assay: CYP inhibition, fluorescent, CYP2C9; format: in vitro ADME
Experimental: as §3

CYP2C19 = CYP2C19 (Homo sapiens (Human), UniProt P33261); assay: CYP inhibition, fluorescent, CYP2C19; format: in vitro ADME
Experimental: as §3

A2E = A2E (bisretinoid) accumulation in eyes of Abca4−/− mice, HPLC of eyecups; format: in vivo; conditions: 35 mg/kg daily oral in chow, 8 weeks, p=0.0007
Experimental: as §1
as §2, with “Blood samples were collected at baseline and at the end of the dosing period for serum RBP4 measurements. Whole blood was drawn into a centrifuge tube and was let clot at room temperature for 30 min followed by centrifugation at 2,000×g for 15 minutes at +4° C. to collect serum.” left out
After the completion of dosing, animals were euthanized and posterior eyecups consisting of sclera, choroid and RPE were prepared from enucleated eyes according to the standard techniques. […] A previously established HPLC method (Journal of Biological Chemistry, 275, 29354-29360) was utilized for quantifying A2E in mouse eyecups. Quantitation of A2E was conducted by manually integrating the A2E peak (approximately 12-min elution time) which was identified by the co-elution with the synthetic A2E standard and by characteristic absorbance spectrum. […]

Sequence of CYP2D6 (P10635 whole entry, species assumed): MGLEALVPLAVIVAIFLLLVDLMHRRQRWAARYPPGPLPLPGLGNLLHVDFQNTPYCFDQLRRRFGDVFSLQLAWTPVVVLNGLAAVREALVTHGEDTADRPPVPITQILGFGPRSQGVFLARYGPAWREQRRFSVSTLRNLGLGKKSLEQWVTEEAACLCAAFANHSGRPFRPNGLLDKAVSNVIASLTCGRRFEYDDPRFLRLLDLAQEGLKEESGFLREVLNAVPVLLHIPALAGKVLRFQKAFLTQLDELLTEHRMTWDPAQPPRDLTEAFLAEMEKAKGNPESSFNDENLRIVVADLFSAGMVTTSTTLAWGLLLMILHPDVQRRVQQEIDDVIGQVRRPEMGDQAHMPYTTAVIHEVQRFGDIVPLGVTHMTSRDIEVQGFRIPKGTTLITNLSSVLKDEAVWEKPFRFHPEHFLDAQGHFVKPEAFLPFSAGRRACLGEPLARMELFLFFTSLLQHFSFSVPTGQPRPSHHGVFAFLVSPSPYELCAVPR
Sequence of CYP2C9 (P11712 whole entry, species assumed): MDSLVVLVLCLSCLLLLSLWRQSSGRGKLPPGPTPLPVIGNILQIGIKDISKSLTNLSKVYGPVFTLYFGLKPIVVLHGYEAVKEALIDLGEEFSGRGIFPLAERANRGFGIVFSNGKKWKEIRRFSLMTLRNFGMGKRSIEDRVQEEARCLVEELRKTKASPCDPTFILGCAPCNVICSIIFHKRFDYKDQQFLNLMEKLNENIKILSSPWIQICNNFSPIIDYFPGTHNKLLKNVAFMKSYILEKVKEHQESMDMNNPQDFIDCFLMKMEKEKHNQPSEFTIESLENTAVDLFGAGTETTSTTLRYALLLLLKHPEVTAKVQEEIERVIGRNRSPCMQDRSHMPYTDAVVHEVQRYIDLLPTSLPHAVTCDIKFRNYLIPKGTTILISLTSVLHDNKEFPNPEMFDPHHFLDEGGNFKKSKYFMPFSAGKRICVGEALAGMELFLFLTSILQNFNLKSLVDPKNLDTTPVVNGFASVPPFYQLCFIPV
Sequence of CYP2C19 (P33261 whole entry, species assumed): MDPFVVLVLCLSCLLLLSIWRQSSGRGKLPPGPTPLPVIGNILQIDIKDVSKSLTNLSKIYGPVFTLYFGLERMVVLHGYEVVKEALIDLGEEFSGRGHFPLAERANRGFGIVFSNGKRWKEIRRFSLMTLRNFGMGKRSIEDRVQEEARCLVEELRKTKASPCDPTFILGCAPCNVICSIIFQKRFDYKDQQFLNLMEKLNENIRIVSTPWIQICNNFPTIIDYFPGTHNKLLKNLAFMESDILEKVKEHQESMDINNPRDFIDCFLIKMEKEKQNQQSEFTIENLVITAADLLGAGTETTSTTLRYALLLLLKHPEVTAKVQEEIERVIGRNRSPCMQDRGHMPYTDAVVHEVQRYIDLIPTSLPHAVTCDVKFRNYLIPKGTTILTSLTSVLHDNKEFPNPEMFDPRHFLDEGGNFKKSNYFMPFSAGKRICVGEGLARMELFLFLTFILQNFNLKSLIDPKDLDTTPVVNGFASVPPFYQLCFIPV
Sequence of CYP3A4 (P08684 whole entry, species assumed): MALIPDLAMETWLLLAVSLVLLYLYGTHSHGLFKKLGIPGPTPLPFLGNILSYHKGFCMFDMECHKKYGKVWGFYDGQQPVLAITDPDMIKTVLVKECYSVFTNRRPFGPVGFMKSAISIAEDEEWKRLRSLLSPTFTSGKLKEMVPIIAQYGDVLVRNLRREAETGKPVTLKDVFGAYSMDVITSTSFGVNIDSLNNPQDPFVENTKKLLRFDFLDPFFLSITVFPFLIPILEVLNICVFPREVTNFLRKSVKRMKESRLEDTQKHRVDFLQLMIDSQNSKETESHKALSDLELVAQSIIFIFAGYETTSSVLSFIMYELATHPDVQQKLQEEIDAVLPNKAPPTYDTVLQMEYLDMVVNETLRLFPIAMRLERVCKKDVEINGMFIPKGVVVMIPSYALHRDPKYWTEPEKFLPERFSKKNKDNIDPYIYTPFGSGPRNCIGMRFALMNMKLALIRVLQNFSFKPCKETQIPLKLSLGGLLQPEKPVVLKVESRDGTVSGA

## O=C(c1nc2ncccn2n1)N1C[C@H]2C[C@@H](c3ccccc3C(F)(F)F)C[C@H]2C1 [Compound 7a]
Serum RBP4 [1]
  serum RBP4 reduction at end of 8-week treatment: Approximately 70%
CYP2D6
  pIC50: < 4.00
Human RBP4
  pIC50: 7.64
CYP3A4
  pIC50: < 4.00
[2]
  Metabolic stability in liver microsomes: % Remaining at 30 min, HLM: 85%
Serum RBP4 [3]; single 15 mg/kg PO, at 4 hr
  maximum serum RBP4 reduction: 83%
Serum RBP4 [3]; single 25 mg/kg PO, at 6 hr timepoint
  maximum serum RBP4 reduction: 86%
Serum RBP4 [3]; single 35 mg/kg PO, at 8 hr timepoint
  maximum serum RBP4 reduction: 89%
CYP2C9
  pIC50: < 4.00
CYP2C19
  pIC50: < 4.70
A2E
  A2E reduction vs control chow-treated Abca4−/− animals: 69%
